Experimental data as given in US12558397B2, “Composition for prevention, amelioration, or treatment of urination-related diseases comprising cephalotocin” (KOREA RESEARCH INSTITUTE OF CHEMICAL TECHNOLOGY, priority 2020, dated 2026).

Assays:
Assay type in all cases: cell-based
[1] = target: T1, human vasopressin V1B receptor (Homo sapiens, UniProt P47901); assay: Vasopressin receptor V1BR activity/inhibitory effect, intracellular calcium by calcium dye fluorescence imaging; settings: RBL cells overexpressing human V1B receptor, FIGS. 3 and 4
T1 construct: expressed in transfected cells; host or cells: RBL (basophilic leukemia) cells
T1 sequence (P47901 1-424): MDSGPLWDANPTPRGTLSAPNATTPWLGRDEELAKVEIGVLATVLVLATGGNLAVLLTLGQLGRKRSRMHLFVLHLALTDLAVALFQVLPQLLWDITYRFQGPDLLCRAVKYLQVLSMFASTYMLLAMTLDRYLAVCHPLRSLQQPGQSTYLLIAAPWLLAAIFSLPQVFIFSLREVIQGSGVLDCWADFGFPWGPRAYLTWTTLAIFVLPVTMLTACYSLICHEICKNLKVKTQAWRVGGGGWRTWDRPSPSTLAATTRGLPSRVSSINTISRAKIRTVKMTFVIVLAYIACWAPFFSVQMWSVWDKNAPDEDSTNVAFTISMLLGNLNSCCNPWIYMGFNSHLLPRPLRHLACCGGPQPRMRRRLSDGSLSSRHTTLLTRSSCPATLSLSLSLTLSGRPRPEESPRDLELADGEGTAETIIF
Protocol: (§1) Recombinant human vasopressin V1B receptor-overexpressing murine basophilic leukemia (cell line name: RBL) was cultured and treated with cephalotocin at different concentrations at room temperature, and the change in intracellular calcium concentration induced by cephalotocin-vasopressin V1B receptor binding was measured by the calcium dye fluorescence imaging method.
The results confirming the regulatory effect on the receptors OXTR, V1AR, V1BR and V2R by Octopus vulgaris octopressin are shown in FIGS. 3 and 4, respectively.

[2] = target: T2, human vasopressin V1A receptor (Homo sapiens, UniProt P37288); assay: Vasopressin receptor V1AR activity/inhibitory effect, intracellular calcium by calcium dye fluorescence imaging; settings: CHO cells overexpressing human V1A receptor, FIGS. 3 and 4
T2 construct: expressed in transfected cells; host or cells: CHO (Chinese hamster ovary) cells
Protocol: as §1, with “V1A” for “V1B”, “Chinese hamster ovary cells” for “murine basophilic leukemia”, “CHO) were” for “RBL) was”
To confirm the receptor inhibitory effect, the response to increasing the intracellular calcium concentration that vasopressin 10 nM may cause was taken as 100% standard, and the relative magnitude of the response induced when treated with vasopressin 10 nM and cephalotocin simultaneously was measured.
(§2) . The results confirming the regulatory effect on the receptors OXTR, V1AR, V1BR and V2R by Octopus vulgaris octopressin are shown in FIGS. 3 and 4, respectively.

human oxytocin receptor = target: T3, human oxytocin receptor (Homo sapiens, UniProt P30559); assay: Oxytocin receptor OXTR activity/inhibitory effect, intracellular calcium by calcium dye fluorescence imaging; settings: ECSV304 cells overexpressing human oxytocin receptor, FIGS. 3 and 4
T3 construct: expressed in transfected cells; host or cells: recombinant human epithelial cells, cell line ECSV304 as printed
T3 sequence (P30559 1-389): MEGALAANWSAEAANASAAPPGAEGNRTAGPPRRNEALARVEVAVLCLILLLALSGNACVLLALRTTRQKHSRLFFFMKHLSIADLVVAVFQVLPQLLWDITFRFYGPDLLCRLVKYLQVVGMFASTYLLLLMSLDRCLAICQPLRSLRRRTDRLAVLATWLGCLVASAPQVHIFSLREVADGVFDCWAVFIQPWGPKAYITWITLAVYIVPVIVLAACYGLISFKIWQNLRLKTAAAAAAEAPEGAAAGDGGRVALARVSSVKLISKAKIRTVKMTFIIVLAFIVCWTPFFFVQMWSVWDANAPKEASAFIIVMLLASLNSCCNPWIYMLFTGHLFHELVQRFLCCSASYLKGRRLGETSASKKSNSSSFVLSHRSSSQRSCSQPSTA
Protocol: Recombinant human epithelial cells overexpressing human oxytocin receptor (Name of cell line: ECSV304) were cultured and treated with cephalotocin at different concentrations at room temperature. The change in intracellular calcium concentration induced by cephalotocin-oxytocin receptor binding was measured by calcium dye fluorescence imaging.
To confirm the receptor activation effect, the response to increasing the intracellular calcium concentration that oxytocin 1 μM may cause was taken as 100%, and the relative magnitude of the response induced when treated with cephalotocin alone without oxytocin was measured
To confirm the receptor inhibitory effect, the response to increasing the intracellular calcium concentration that oxytocin 30 nM may cause was taken as 100% standard, and the relative magnitude of the response induced when treated with oxytocin 30 nM and cephalotocin simultaneously was measured.
as §2

[3] = target: T4, human vasopressin V2 receptor (Homo sapiens, UniProt P30518); assay: Vasopressin receptor V2R activity/inhibitory effect, intracellular cAMP by HTRF; settings: CHO cells overexpressing human V2 receptor, FIGS. 3 and 4
T4 construct: expressed in transfected cells; host or cells: CHO (Chinese hamster ovary) cells
Protocol: Recombinant human vasopressin V2 receptor-overexpressing Chinese hamster ovary cells (cell line name: CHO) were cultured and treated with cephalotocin at different concentrations at room temperature for 30 minutes, and intracellular cAMP concentration accumulated for 30 minutes by cephalotocin-vasopressin V2 receptor binding was measured by the HTRF fluorescence imaging method. […]. To confirm the receptor inhibitory effect, the response to increasing the intracellular cAMP concentration that vasopressin 0.03 nM may cause for 30 minutes was taken as 100% standard, and the relative magnitude of the response induced when treated with vasopressin 0.03 nM and cephalotocin simultaneously was measured.
as §2

T2 sequence (P37288 whole entry): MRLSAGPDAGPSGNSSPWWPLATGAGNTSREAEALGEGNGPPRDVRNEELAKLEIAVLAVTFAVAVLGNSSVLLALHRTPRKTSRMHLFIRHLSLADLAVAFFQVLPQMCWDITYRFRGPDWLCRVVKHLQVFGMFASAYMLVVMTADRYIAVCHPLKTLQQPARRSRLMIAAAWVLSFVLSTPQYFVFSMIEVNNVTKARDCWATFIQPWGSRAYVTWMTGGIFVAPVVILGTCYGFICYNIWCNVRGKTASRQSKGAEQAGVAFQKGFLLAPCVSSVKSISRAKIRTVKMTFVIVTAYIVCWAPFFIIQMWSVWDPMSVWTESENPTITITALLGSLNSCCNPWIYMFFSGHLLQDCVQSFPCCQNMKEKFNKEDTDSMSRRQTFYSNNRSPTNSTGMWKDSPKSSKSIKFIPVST

Regulation (activation/inhibition) of V1BR [1]: does not regulate
Regulation (activation/inhibition) of V1AR [2]: does not regulate
Regulation (activation/inhibition) of OXTR (human oxytocin receptor): does not regulate
Regulation (activation/inhibition) of V2R [3]: does not regulate
Substance: octopressin
